Patent publication EP4786466A1, “QUINAZOLINE DERIVATIVE, SALT THEREOF, AND PHARMACEUTICAL COMPOSITION COMPRISING SAME AS ACTIVE INGREDIENT” (Korea Research Institute of Chemical Technology, priority 2023, dated 2025)
Read-outs that look alike come from different tables or passages of the source.

Columns and labels:
[1] = biological target: T1, Recombinant GST-TAG-MASTL (Homo sapiens, UniProt Q96GX5); assay: HTRF-based kinase assay (HTRF KinEASE assay kit); format: biochemical; details: for activity at 1 µM: read-out: MASTL activity (%) HTRF (1 µM); for activity at 10 µM: footnote b: concentration 10 µM; for activity at 10 µM / activity at 1.25 µM: read-out: MASTL activity (%) HTRF; for activity at 1.25 µM: footnote a: concentration 1.25 µM
T1 construct: GST; purchased Thermo Fisher Scientific
T1 sequence (Q96GX5 1-879): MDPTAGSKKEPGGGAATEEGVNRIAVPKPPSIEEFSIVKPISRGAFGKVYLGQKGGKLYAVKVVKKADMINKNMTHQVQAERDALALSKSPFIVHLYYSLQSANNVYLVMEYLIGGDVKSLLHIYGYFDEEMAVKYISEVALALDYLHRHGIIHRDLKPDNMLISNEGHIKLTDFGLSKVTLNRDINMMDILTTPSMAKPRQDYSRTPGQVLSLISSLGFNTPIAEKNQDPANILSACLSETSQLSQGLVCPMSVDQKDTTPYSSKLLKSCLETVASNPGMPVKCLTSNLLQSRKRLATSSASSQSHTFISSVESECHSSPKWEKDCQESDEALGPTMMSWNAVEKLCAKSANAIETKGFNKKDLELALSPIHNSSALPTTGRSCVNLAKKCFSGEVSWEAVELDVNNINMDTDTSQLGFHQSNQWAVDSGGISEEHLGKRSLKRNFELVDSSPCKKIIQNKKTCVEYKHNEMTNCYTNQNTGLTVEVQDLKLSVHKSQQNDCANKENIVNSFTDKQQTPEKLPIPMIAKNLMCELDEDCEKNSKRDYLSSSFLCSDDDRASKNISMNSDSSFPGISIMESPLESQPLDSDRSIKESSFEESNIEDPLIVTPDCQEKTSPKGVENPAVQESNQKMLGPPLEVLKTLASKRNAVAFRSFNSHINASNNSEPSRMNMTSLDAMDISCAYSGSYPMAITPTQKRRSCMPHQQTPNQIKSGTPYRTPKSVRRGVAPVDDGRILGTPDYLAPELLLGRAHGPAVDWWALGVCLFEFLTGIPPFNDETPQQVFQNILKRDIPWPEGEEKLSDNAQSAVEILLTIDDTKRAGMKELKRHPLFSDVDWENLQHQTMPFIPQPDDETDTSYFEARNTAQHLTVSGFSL
Source text: Recombinant GST-TAG-MASTL (Thermo Fisher Scientific, MA, USA) was used for HTRF-based kinase assays. The HTRF KinEASE assay kit (CisBio, MA, USA) was used according to the manufacturer's instructions.

pENSA = pENSA level by immunofluorescence (described method: in vitro kinase analysis with GST-tag-MASTL and His-tag-ENSA); format: cell-based; details: for pENSA (%) Immunofluor ecense (1 µM): compound 1 µM
Summary of the method: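 In vitro kinase reaction using recombinant GST-tagged MASTL with His-tagged ENSA as substrate; phosphorylated ENSA (pENSA) serves as read-out of MASTL activity. Cell lines named: MCF7 breast cancer and MCF10A.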

[2] = test system: MCF10A normal breast cell lines; assay: Cell viability analysis, WST-8 assay, MCF10A; details: Homo sapiens, MCF-10A, 72 h
Experimental: (§1) MCF7 breast cancer cell lines and MCF10A normal breast cancer cell lines were treated with serial dilutions of the compounds of the present invention ranging from 1 µM to 15.63 nM for 72 hours. Cell viability was measured by the WST-8 assay (Cyto XTM cell viability assay kit; LPS solution, Daejeon, Korea) according to the manufacturer's instructions.

in vitro = details: human, mcf10a cells
Experimental: as §1

[3] = test system: MCF7 breast cancer cell lines; assay: Cell viability analysis, WST-8 assay, MCF7; details: Homo sapiens, MCF7, 72 h; for viability at 1 µM: read-out: Cell viability (%) WST-8, MCF7 (1 µM), compound 1 µM, 72 hours; for viability at 1.25 µM: read-out: Cell viability (%) WST-8, MCF7, footnote a: concentration 1.25 µM, 72 hours; for viability at 1.1 µM: read-out: Cell viability (%) WST-8, MCF7, footnote d: concentration 1.1 µM, 72 hours
Experimental: as §1

[4] = HTRF, read-out: IC50(nM) MASTL activity
[5] = read-out: IC50(nM) Cell viability (MCF10A)
[6] = read-out: IC50 Cell viability (MCF7)
[7] = HTRF, unit µM, read-out: IC50 MASTL activity
[8] = read-out: IC50 Cell viability (MCF10A)
[9] = read-out: IC50(nM) Cell viability (MCF7)

SMILES: CC(C)C(=O)N1CC=C(c2nc(Nc3cc(C4CC4)[nH]n3)c3ccccc3n2)CC1 [compound 9b, 1-(4-(4-((5-cyclopropyl-1G-pyrazol-3-yl)amino)quinazolin-2-yl)-3,6-dihydropyridin-1(2G)-yl)-2-methylpropan-1-one]
- IC50 [1, 4]: 136 nM
- activity at 1 µM ([1]; compound 1 µM): 21.7%
- pENSA (%) Immunofluor ecense (1 µM) (pENSA): 34.6%
- IC50 (pENSA; read-out: IC50(nM) pENSA): 832 nM
- IC50 [2, 5]: 316 nM
- viability at 1 µM (in vitro): 12.3%
- viability at 1 µM [3]: 52.5%
- IC50 [3, 6]: 1000 nM

SMILES: c1ccc2c(Nc3cc(C4CC4)[nH]n3)nc(N3CCNCC3)nc2c1 [compound 11, M-(5-cyclopropyl-1G-pyrazol-3-yl)-2-(piperazin-1-yl)quinazolin-4-amine]
- IC50 [1, 7]: 1000 nM
- activity at 10 µM [1]: 18.1%
- pENSA (%) Immunofluor ecense (1 µM) (pENSA): 66.4%
- IC50 [2, 8]: 4100 nM
- viability at 1.25 µM (in vitro): 98%
- viability at 1.25 µM [3]: 104%
- IC50 [3, 6]: 3200 nM

SMILES: CN1CCN(c2nc(Nc3cc(C4CC4)[nH]n3)c3ccccc3n2)CC1 [compound 12a, M-(5-cyclopropyl-1G-pyrazol-3-yl)-2-(4-methylpiperazin-1-yl)quinazolin-4-amine]
- activity at 10 µM [1]: 26.3%
- pENSA (%) Immunofluor ecense (1 µM) (pENSA): 63.8%
- IC50 (pENSA; unit µM, read-out: IC50 pENSA): 1100 nM
- IC50 [2, 8]: 2400 nM
- viability at 1.25 µM (in vitro): 82.3%
- viability at 1.25 µM [3]: 26.2%
- IC50 [3, 9]: 697 nM

SMILES: OCCN1CCN(c2nc(Nc3cc(C4CC4)[nH]n3)c3ccccc3n2)CC1 [compound 12b, 2-(4-(4-((5-cyclopropyl-1G-pyrazol-3-yl)amino)quinazolin-2-yl)piperazin-1-yl)ethan-1-ol]
- IC50 [1, 4]: 807 nM
- activity at 10 µM [1]: 17.7%
- pENSA (%) Immunofluor ecense (1 µM) (pENSA): 41.7%
- IC50 (pENSA; read-out: IC50(nM) pENSA): 852 nM
- IC50 [2, 5]: 2600 nM
- viability at 1.25 µM (in vitro): 123%
- viability at 1.25 µM [3]: 69.4%
- IC50 [3, 6]: 1500 nM

SMILES: CCNC(=O)N1CCN(c2nc(Nc3cc(C4CC4)[nH]n3)c3ccccc3n2)CC1 [compound 12c, 4-(4-((5-cyclopropyl-1G-pyrazol-3-yl)amino)quinazolin-2-yl)-M-ethylpiperazine-1-carboxamide]
- activity at 10 µM [1]: 45.7%
- pENSA (%) Immunofluor ecense (1 µM) (pENSA): 75.8%
- IC50 [2, 8]: 1400 nM
- viability at 1.25 µM (in vitro): 61.3%
- viability at 1.25 µM [3]: 107%

SMILES: O=C(Nc1ccc(F)cc1)N1CCN(c2nc(Nc3cc(C4CC4)[nH]n3)c3ccccc3n2)CC1 [compound 12d, 4-(4-((5-cyclopropyl-1G-pyrazol-3-yl)amino)quinazolin-2-yl)-M-(4-fluorophenyl)piperazine-1-carboxamide]
- IC50 [1, 4]: 832 nM
- activity at 10 µM [1]: 14.1%
- pENSA (%) Immunofluor ecense (1 µM) (pENSA): 46.3%
- IC50 (pENSA; read-out: IC50(nM) pENSA): 571 nM
- IC50 [2, 8]: 1500 nM
- viability at 1.25 µM (in vitro): 63.7%
- viability at 1.25 µM [3]: 55.8%
- IC50 [3, 6]: 1500 nM

SMILES: CC(C)(C)OC(=O)N1CC2CC1CN2c1nc(Nc2cc(C3CC3)[nH]n2)c2ccccc2n1 (stereo not shown) [compound 13, sdqs-butyl 5-(4-((5-cyclopropyl-1G-pyrazol-3-yl)amino)quinazolin-2-yl)-2,5-diazabicyclo[2.2.1]heptane-2-carboxylate]
- IC50 [1, 7]: 1000 nM
- activity at 1.25 µM [1]: 53.8%
- pENSA (%) Immunofluor ecense (1 µM) (pENSA): 90%
- IC50 [2, 5]: 316 nM
- viability at 1.25 µM (in vitro): 15.9%
- viability at 1.25 µM [3]: 62%
- IC50 [3, 9]: 932 nM

SMILES: c1ccc2c(Nc3cc(C4CC4)[nH]n3)nc(N3CC4CC3CN4)nc2c1 (stereo not shown) [compound 14, 2-(2,5-diazabicyclo[2.2.1]heptan-2-yl)-M-(5-cyclopropyl-1G-pyrazol-3-yl)quinazolin-4-amine Trifluoroacetic acid]
- IC50 [1]: 593 nM
- activity at 1 µM [1]: 25.5%
- pENSA (%) Immunofluor ecense (1 µM) (pENSA): 9.2%
- IC50 (pENSA; read-out: IC50(nM) pENSA): 645 nM
- IC50 [2, 8]: 1700 nM
- viability at 1 µM (in vitro): 63.4%
- viability at 1 µM [3]: 21.8%
- IC50 [3, 9]: 647 nM

SMILES: CCNC(=O)N1CC2CC1CN2c1nc(Nc2cc(C3CC3)[nH]n2)c2ccccc2n1 (stereo not shown) [compound 15a, 5-(4-((5-cyclopropyl-1G-pyrazol-3-yl)amino)quinazolin-2-yl)-M-ethyl-2,5-diazabicyclo[2.2.1]heptane-2-carboxamide]
- IC50 [1, 7]: 1100 nM
- activity at 1.25 µM [1]: 61.1%
- pENSA (%) Immunofluor ecense (1 µM) (pENSA): 86.1%
- IC50 [2, 5]: 820 nM
- viability at 1.25 µM (in vitro): 37%
- viability at 1.25 µM [3]: 61%

SMILES: CC(C)S(=O)(=O)N1CC2CC1CN2c1nc(Nc2cc(C3CC3)[nH]n2)c2ccccc2n1 (stereo not shown) [compound 15h, M-(5-cyclopropyl-1G-pyrazol-3-yl)-2-(5-(isopropylsulfonyl)-2,5-diazabicyclo[2.2.1]heptan-2-yl)quinazolin-4-amine]
- IC50 [1, 4]: 147 nM
- activity at 1 µM ([1]; compound 1 µM): 15.7%
- pENSA (%) Immunofluor ecense (1 µM) (pENSA): 51.7%
- IC50 [2, 5]: 833 nM
- viability at 1.1 µM (in vitro): 45%
- viability at 1.1 µM [3]: 94.5%
- IC50 [3, 6]: 1700 nM

SMILES: CCCS(=O)(=O)N1CC2CC1CN2c1nc(Nc2cc(C3CC3)[nH]n2)c2ccccc2n1 (stereo not shown) [compound 15j, M-(5-cyclopropyl-1G-pyrazol-3-yl)-2-(5-(propylsulfonyl)-2,5-diazabicyclo[2.2.1]heptan-2-yl)quinazolin-4-amine]
- IC50 [1, 4]: 284 nM
- activity at 1 µM ([1]; compound 1 µM): 31.6%
- pENSA (%) Immunofluor ecense (1 µM) (pENSA): 65.2%
- IC50 [2, 8]: 1300 nM
- viability at 1.1 µM (in vitro): 65.2%
- viability at 1.1 µM [3]: 104%
- IC50 [3, 6]: 3200 nM

SMILES: O=S(=O)(c1ccccc1)N1CC2CC1CN2c1nc(Nc2cc(C3CC3)[nH]n2)c2ccccc2n1 (stereo not shown) [compound 15m, M-(5-cyclopropyl-1G-pyrazol-3-yl)-2-(5-(phenylsulfonyl)-2,5-diazabicyclo[2.2.1]heptan-2-yl)quinazolin-4-amine]
- IC50 [1, 4]: 490 nM
- activity at 1 µM ([1]; compound 1 µM): 28.7%
- pENSA (%) Immunofluor ecense (1 µM) (pENSA): 82.6%
- IC50 [2, 8]: 1900 nM
- viability at 1.1 µM (in vitro): 82.2%
- viability at 1.1 µM [3]: 111%
- IC50 [3, 6]: 4200 nM

SMILES: O=S(=O)(c1ccc(F)cc1)N1CC2CC1CN2c1nc(Nc2cc(C3CC3)[nH]n2)c2ccccc2n1 (stereo not shown) [compound 15n, M-(5-cyclopropyl-1G-pyrazol-3-yl)-2-(5-((4-fluorophenyl)sulfonyl)-2,5-diazabicyclo[2.2.1]heptan-2-yl)quinazolin-4-amine]
- IC50 [1, 4]: 327 nM
- activity at 1 µM ([1]; compound 1 µM): 32.4%
- pENSA (%) Immunofluor ecense (1 µM) (pENSA): 77.5%
- IC50 [2, 8]: 1300 nM
- viability at 1.1 µM (in vitro): 63.9%
- viability at 1.1 µM [3]: 108%
- IC50 [3, 6]: 3500 nM

SMILES: O=S(=O)(c1ccc(F)cc1F)N1CC2CC1CN2c1nc(Nc2cc(C3CC3)[nH]n2)c2ccccc2n1 (stereo not shown) [compound 15o, M-(5-cyclopropyl-1G-pyrazol-3-yl)-2-(5-((2,4-difluorophenyl)sulfonyl)-2,5-diazabicyclo[2.2.1]heptan-2-yl)quinazolin-4-amine]
- IC50 [1, 4]: 170 nM
- activity at 1 µM ([1]; compound 1 µM): 20.3%
- pENSA (%) Immunofluor ecense (1 µM) (pENSA): 90.3%
- IC50 [2, 8]: 2400 nM
- viability at 1.1 µM (in vitro): 92.6%
- viability at 1.1 µM [3]: 119%
- IC50 [3, 6]: 3700 nM

SMILES: CC(C)(C)OC(=O)N1CC2CCC1CN2c1nc(Nc2cc(C3CC3)[nH]n2)c2ccccc2n1 (stereo not shown) [compound 19, sdqs,butyl 5-(4-((5-cyclopropyl-1G-pyrazol-3-yl)amino)quinazolin-2-yl)-2,5-diazabicyclo[2.2.2]octane-2-carboxylate]
- IC50 [1, 4]: 569 nM
- activity at 1 µM ([1]; compound 1 µM): 39.9%
- pENSA (%) Immunofluor ecense (1 µM) (pENSA): 84.7%
- IC50 [2, 5]: 810 nM
- viability at 1 µM (in vitro): 71.3%
- viability at 1 µM [3]: 41.2%
- IC50 [3, 6]: 1100 nM
